Columns and labels:
mTOR = molecular target: T1, mTOR (Homo sapiens, UniProt P42345); assay: mTOR kinobeads assay (competitive binding in Jurkat cell lysate, immunodetection); details: Further Kinobeads Data; read-out: mTor
T1 construct: endogenous in cells; host or cells: Jurkat, clone E6-1 (ATCC TIB-152) cell lysate
Outline: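 IC50 derived from dose-response curves of mTOR captured on immobilized phenylmorpholin-chromen beads, detected by antibody dot blot with infrared fluorescence.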

PI3Kalpha (PI3Ka) = molecular target: T2, PI3Kalpha (PI3Ka) (Homo sapiens, UniProt P42336); assay: kinobeads assay, PI3Kalpha; type: binding; details: Further Kinobeads Data; for IC50: read-out: PI3Ka
T2 construct: endogenous in cells; host or cells: cell lysate
T2 sequence (P42336 whole entry): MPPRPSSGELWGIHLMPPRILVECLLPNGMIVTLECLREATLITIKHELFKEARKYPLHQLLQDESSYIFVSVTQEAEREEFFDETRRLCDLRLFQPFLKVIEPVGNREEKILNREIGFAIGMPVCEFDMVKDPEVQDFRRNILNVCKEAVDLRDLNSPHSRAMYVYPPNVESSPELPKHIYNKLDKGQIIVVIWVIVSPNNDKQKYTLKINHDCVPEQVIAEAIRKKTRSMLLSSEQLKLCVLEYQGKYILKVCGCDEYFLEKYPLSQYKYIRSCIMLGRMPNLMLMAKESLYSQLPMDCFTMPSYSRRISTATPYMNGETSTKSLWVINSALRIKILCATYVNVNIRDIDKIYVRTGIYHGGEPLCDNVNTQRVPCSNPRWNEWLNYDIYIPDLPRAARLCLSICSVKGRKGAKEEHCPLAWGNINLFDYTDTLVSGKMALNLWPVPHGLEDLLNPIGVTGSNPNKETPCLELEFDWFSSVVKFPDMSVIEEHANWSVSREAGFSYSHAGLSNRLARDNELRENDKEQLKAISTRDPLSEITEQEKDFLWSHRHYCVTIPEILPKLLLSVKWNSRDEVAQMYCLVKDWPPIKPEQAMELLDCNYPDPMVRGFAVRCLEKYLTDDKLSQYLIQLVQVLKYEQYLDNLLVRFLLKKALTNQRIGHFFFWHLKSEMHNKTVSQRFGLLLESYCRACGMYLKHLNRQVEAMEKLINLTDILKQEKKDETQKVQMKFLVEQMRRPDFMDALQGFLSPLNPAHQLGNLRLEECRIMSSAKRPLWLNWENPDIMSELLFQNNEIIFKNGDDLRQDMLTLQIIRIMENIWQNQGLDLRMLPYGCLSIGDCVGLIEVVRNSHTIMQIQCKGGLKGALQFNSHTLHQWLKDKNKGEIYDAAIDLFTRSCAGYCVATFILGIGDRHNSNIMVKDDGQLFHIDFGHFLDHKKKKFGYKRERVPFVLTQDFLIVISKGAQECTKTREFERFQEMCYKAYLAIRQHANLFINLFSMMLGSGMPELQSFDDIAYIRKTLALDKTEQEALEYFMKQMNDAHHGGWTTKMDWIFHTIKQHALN
T2 sequence (P27986 whole entry partner): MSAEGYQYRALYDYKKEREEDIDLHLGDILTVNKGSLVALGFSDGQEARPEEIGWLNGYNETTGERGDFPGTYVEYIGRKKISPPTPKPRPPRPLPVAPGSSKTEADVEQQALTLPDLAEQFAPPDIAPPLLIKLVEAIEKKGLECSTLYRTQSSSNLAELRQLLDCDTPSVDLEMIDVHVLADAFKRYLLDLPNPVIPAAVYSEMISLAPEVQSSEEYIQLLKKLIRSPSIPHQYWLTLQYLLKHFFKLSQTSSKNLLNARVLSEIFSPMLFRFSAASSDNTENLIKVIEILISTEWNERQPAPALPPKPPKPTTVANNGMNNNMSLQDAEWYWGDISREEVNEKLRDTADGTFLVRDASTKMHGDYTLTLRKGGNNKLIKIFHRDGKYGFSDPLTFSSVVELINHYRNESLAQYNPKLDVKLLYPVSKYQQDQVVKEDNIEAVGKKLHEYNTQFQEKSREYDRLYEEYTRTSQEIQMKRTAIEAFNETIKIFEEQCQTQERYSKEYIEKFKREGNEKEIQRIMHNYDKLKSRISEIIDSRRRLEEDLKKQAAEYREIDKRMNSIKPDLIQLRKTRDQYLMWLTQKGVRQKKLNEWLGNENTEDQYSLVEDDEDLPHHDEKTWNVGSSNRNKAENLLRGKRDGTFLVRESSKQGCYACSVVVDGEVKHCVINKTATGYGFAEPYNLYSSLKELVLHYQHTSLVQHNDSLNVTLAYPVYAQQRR
Outline: (§1)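 IC50s are fitted to per-kinase dose-response curves. Kinases retained on phenylmorpholin-chromen affinity beads are read by multiplexed immunodetection after elution. Compound, added at a range of concentrations straight into cell lysate, competes for this bead capture.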

PI3 Kbeta (PI3 Kb) = molecular target: T3, PI3 Kbeta (PI3 Kb) (Homo sapiens, UniProt P42338); assay: kinobeads assay, PI3Kbeta; type: binding; details: Further Kinobeads Data; read-out: PI3Kb
T3 construct: endogenous in cells; host or cells: cell lysate
T3 sequence (P42338 whole entry): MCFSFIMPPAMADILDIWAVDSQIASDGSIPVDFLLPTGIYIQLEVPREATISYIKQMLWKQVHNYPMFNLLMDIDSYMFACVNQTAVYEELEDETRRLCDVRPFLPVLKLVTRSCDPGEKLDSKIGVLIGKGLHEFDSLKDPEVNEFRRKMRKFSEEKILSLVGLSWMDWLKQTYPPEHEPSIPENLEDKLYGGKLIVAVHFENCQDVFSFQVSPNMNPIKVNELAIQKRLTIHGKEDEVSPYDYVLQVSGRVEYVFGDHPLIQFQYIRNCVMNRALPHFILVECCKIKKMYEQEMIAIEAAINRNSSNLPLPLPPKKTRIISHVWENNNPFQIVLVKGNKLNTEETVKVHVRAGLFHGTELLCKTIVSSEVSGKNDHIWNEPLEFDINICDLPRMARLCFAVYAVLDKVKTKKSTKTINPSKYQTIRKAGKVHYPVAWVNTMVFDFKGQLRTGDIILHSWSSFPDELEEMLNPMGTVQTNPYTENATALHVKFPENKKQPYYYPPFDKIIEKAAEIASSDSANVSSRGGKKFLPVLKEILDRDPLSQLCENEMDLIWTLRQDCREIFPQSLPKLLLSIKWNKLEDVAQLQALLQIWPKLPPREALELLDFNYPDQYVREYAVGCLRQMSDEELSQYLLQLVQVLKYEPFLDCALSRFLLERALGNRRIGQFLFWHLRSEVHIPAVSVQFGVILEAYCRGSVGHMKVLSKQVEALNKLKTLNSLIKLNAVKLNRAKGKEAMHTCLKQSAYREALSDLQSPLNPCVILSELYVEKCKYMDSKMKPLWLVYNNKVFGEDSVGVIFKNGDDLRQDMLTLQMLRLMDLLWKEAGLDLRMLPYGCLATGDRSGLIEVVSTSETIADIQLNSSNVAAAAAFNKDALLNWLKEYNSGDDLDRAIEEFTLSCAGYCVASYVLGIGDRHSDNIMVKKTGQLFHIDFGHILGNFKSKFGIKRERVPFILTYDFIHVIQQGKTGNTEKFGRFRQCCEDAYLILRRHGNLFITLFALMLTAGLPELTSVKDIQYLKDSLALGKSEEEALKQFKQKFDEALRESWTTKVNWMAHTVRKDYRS
T3 sequence (P27986 whole entry partner): as the sequence (P27986 whole entry partner) above
Outline: as §1

PI3 Kgamma (PI3 Kg) = molecular target: T4, PI3 Kgamma (PI3 Kg) (Homo sapiens, UniProt P48736); assay: kinobeads assay, PI3Kgamma; type: binding; details: Further Kinobeads Data; read-out: PI3Kg
T4 construct: endogenous in cells; host or cells: cell lysate
T4 sequence (P48736 whole entry): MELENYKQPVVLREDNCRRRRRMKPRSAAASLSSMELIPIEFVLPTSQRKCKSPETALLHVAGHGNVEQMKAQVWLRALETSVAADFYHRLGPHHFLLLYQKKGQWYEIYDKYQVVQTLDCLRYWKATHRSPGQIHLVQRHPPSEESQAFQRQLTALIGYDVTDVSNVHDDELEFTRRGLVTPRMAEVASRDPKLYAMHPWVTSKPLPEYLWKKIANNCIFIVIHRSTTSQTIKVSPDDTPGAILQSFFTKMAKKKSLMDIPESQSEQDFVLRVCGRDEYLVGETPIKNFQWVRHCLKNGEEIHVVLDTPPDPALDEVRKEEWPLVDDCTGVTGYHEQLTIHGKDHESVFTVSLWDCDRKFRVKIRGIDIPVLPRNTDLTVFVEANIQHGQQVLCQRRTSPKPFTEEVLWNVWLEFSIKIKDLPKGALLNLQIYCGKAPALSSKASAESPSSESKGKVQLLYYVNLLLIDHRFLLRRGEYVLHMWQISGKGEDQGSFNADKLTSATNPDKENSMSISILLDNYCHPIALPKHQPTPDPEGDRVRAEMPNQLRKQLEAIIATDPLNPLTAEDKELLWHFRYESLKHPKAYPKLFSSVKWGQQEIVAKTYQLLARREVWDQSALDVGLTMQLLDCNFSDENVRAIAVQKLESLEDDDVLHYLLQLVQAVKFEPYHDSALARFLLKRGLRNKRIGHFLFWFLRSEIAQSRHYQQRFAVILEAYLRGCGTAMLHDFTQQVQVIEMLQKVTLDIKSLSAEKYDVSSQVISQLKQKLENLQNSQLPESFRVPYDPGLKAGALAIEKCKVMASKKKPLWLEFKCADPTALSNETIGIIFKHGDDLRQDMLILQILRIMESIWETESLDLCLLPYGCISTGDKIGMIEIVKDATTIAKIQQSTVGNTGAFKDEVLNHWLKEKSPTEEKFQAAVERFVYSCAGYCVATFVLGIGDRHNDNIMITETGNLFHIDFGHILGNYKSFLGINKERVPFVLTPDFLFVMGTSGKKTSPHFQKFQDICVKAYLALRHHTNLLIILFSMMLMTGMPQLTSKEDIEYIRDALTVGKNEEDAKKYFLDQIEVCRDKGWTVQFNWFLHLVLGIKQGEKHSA
Outline: as §1

| SMILES | IC50 (mTOR) | IC50 (PI3Kalpha (PI3Ka)) | IC50 (PI3 Kbeta (PI3 Kb)) | IC50 (PI3 Kgamma (PI3 Kg)) | PI3Ka (PI3Kalpha (PI3Ka)) |
| --- | --- | --- | --- | --- | --- |
| CCOC(=O)N1Cc2nc(-c3ccc(NC(=O)NCCF)cc3F)nc(N3CCOC[C@@H]3C)c2C1 [Example 168, (S)-ethyl 2-(2-fluoro-4-(3-(2-fluoroethyl)ureido)phenyl)-4-(3-methylmorpholino)-5H-pyrrolo[3,4-d]pyrimidine-6(7H)-carboxylate] | < 0.1 µM | 1 to 10 µM | > 10 µM | > 10 µM | – |
| CCOC(=O)N1Cc2nc(-c3ccc(NC(=O)NCCF)cc3F)nc(N3CCOCC3)c2C1 [Example 170, ethyl 2-(2-fluoro-4-(3-(2-fluoroethyl)ureido)phenyl)-4-morpholino-5H-pyrrolo[3,4-d]pyrimidine-6(7H)-carboxylate] | < 0.1 µM | – | > 10 µM | > 10 µM | D (D >10 μM) |
| CCOC(=O)N1Cc2nc(-c3ccc(NC(=O)NCCO)cc3F)nc(N3CCOCC3)c2C1 [Example 171, ethyl 2-(2-fluoro-4-(3-(2-hydroxyethyl)ureido)phenyl)-4-morpholino-5H-pyrrolo[3,4-d]pyrimidine-6(7H)-carboxylate] | < 0.1 µM | – | > 10 µM | > 10 µM | D (D >10 μM) |
| CC(C)N1Cc2nc(-c3ccc(NC(=O)NC4CC4)cc3F)nc(N3CCOC[C@@H]3C)c2C1 [Example 172, (S)-1-cyclopropyl-3-(3-fluoro-4-(6-isopropyl-4-(3-methylmorpholino)-6,7-dihydro-5H-pyrrolo[3,4-d]pyrimidin-2-yl)phenyl)urea] | < 0.1 µM | 1 to 10 µM | > 10 µM | 1 to 10 µM | – |
| COC(=O)N1Cc2nc(-c3ccc(NC(=O)NC4CC4)cc3F)nc(N3CCOCC3)c2C1 [Example 173, Methyl 2-(4-(3-cyclopropylureido)-2-fluorophenyl)-4-morpholino-5H-pyrrolo[3,4-d]pyrimidine-6(7H)-carboxylate] | < 0.1 µM | – | > 10 µM | > 10 µM | D (D >10 μM) |
| CC(C)C(=O)N1Cc2nc(-c3ccc(NC(=O)NC4CC4)cc3F)nc(N3CCOC[C@@H]3C)c2C1 [Example 174, (S)-1-cyclopropyl-3-(3-fluoro-4-(6-isobutyryl-4-(3-methylmorpholino)-6,7-dihydro-5H-pyrrolo[3,4-d]pyrimidin-2-yl)phenyl)urea] | < 0.1 µM | – | > 10 µM | > 10 µM | D (D >10 μM) |
| CCNC(=O)Nc1ccc(-c2nc3c(c(N4CCOC[C@@H]4C)n2)CCN(C(=O)N(C)C)C3)c(F)c1 [Example 176, (S)-2-(4-(3-ethylureido)-2-fluorophenyl)-N,N-dimethyl-4-(3-methylmorpholino)-5,6-dihydropyrido[3,4-d]pyrimidine-7(8H)-carboxamide] | < 0.1 µM | 1 to 10 µM | 1 to 10 µM | 1 to 10 µM | – |
| C[C@H]1COCCN1c1nc(-c2ccc(NC(=O)NC3CC3)cc2F)nc2c1CN(S(C)(=O)=O)C2 [Example 177, (S)-1-cyclopropyl-3-(3-fluoro-4-(4-(3-methylmorpholino)-6-(methylsulfonyl)-6,7-dihydro-5H-pyrrolo[3,4-d]pyrimidin-2-yl)phenyl)urea] | < 0.1 µM | – | > 10 µM | > 10 µM | D (D >10 μM) |
| C[C@H]1COCCN1c1nc(-c2ccc(NC(=O)NC3CC3)cc2F)nc2c1CN(C(=O)N(C)C)C2 [Example 178, (S)-2-(4-(3-cyclopropylureido)-2-fluorophenyl)-N,N-dimethyl-4-(3-methylmorpholino)-5H-pyrrolo[3,4-d]pyrimidine-6(7H)-carboxamide] | 0.1 to 1 µM | – | > 10 µM | > 10 µM | D (D >10 μM) |
| CCOC(=O)N1Cc2nc(-c3ccc(NC(=O)NC4CC4)cc3F)nc(N3CCOC[C@H]3C)c2C1 [Example 179, (R)-ethyl 2-(4-(3-cyclopropylureido)-2-fluorophenyl)-4-(3-methylmorpholino)-5H-pyrrolo[3,4-d]pyrimidine-6(7H)-carboxylate] | < 0.1 µM | – | > 10 µM | > 10 µM | D (D >10 μM) |
| COC(=O)N1Cc2nc(-c3ccc(NC(=O)NC4CC4)cc3F)nc(N3CCOC[C@H]3C)c2C1 [Example 180, (R)-methyl 2-(4-(3-cyclopropylureido)-2-fluorophenyl)-4-(3-methylmorpholino)-5H-pyrrolo[3,4-d]pyrimidine-6(7H)-carboxylate] | < 0.1 µM | – | > 10 µM | > 10 µM | D (D >10 μM) |
| COC(=O)N1Cc2nc(-c3ccc(NC(=O)NCCO)cc3F)nc(N3CCOC[C@@H]3C)c2C1 [Example 181, (S)-methyl 2-(2-fluoro-4-(3-(2-hydroxyethyl)ureido)phenyl)-4-(3-methylmorpholino)-5H-pyrrolo[3,4-d]pyrimidine-6(7H)-carboxylate] | < 0.1 µM | – | > 10 µM | > 10 µM | D (D >10 μM) |

Results, then the compound that gave them:

| IC50 (mTOR) | IC50 (PI3Kalpha (PI3Ka)) | IC50 (PI3 Kbeta (PI3 Kb)) | IC50 (PI3 Kgamma (PI3 Kg)) | PI3Ka (PI3Kalpha (PI3Ka)) | SMILES |
| --- | --- | --- | --- | --- | --- |
| 0.1 to 1 µM | – | > 10 µM | > 10 µM | D (D >10 μM) | COC(=O)N1Cc2nc(-c3ccc(NC(=O)NCCF)cc3F)nc(N3CCOC[C@@H]3C)c2C1 [Example 183, (S)-methyl 2-(2-fluoro-4-(3-(2-fluoroethyl)ureido)phenyl)-4-(3-methylmorpholino)-5H-pyrrolo[3,4-d]pyrimidine-6(7H)-carboxylate] |
| < 0.1 µM | 1 to 10 µM | > 10 µM | > 10 µM | – | CC(C)N1Cc2nc(-c3ccc(NC(=O)NCCF)cc3F)nc(N3CCOCC3)c2C1 [Example 185, 1-(3-fluoro-4-(6-isopropyl-4-morpholino-6,7-dihyro-5H-pyrrolo[3,4-d]pyrimidin-2-yl)phenyl)-3-(2-fluoroethyl)urea] |
| < 0.1 µM | – | > 10 µM | > 10 µM | D (D >10 μM) | CC(C)N1Cc2nc(-c3ccc(NC(=O)NCCF)cc3F)nc(N3CCOC[C@@H]3C)c2C1 [Example 186, (S)-1-(3-fluoro-4-(6-isopropyl-4-(3-methylmorpholino)-6,7-dihydro-5H-pyrrolo[3,4-d]pyrimidin-2-yl)phenyl)-3-(2-fluoroethyl)urea] |
| < 0.1 µM | – | > 10 µM | > 10 µM | D (D >10 μM) | CC(C)N1Cc2nc(-c3ccc(NC(=O)NCCO)cc3F)nc(N3CCOC[C@@H]3C)c2C1 [Example 187, (S)-1-(3-fluoro-4-(6-isopropyl-4-(3-methylmorpholino)-6,7-dihydro-5H-pyrrolo[3,4-d]pyrimidin-2-yl)phenyl)-3-(2-hydroxyethyl)urea] |
| < 0.1 µM | 1 to 10 µM | > 10 µM | > 10 µM | – | C[C@@H]1COCCN1c1nc(-c2ccc(NC(=O)NC3CC3)cc2F)nc2c1CN(C(=O)C1CC1)C2 [Example 188, (R)-1-(4-(6-(cyclopropanecarbonyl)-4-(3-methylmorpholino)-6,7-dihydro-5H-pyrrolo[3,4-d]pyrimidin-2-yl)-3-fluorophenyl)-3-cyclopropylurea] |
| < 0.1 µM | – | > 10 µM | > 10 µM | D (D >10 μM) | CC(C)NC(=O)N1CCc2c(nc(-c3ccc(NC(=O)NC4CC4)cc3F)nc2N2CCOC[C@@H]2C)C1 [Example 189, (S)-2-(4-(3-cyclopropylureido)-2-fluorophenyl)-N-isopropyl-4-(3-methylmorpholino)-5,6-dihydropyrido[3,4-d]pyrimidine-7(8H)-carboxamide] |
| < 0.1 µM | – | > 10 µM | > 10 µM | D (D >10 μM) | C[C@@H]1COCCN1c1nc(-c2ccc(NC(=O)NC3CC3)cc2F)nc2c1CN(C=O)C2 [Example 190, (R)-1-cyclopropyl-3-(3-fluoro-4-(6-formyl-4-(3-methylmorpholino)-6,7-dihydro-5H-pyrrolo[3,4-d]pyrimidin-2-yl)phenyl)urea] |
| 0.1 to 1 µM | – | > 10 µM | > 10 µM | D (D >10 μM) | C[C@@H]1COCCN1c1nc(-c2ccc(NC(=O)NC3CC3)cc2F)nc2c1CN(S(C)(=O)=O)C2 [Example 191, (R)-1-cyclopropyl-3-(3-fluoro-4-(4-(3-methylmorpholino)-6-(methylsulfonyl)-6,7-dihydro-5H-pyrrolo[3,4-d]pyrimidin-2-yl)phenyl)urea] |

Reference: US8785457B2 (Cellzome Limited, priority 2009, dated 2014)
